Measurements published in ChEMBL document CHEMBL5661943, “ASAP - In vitro antiviral effect” (2024).
Several values for one entry are separate records, joined by “and”; a condition that tells them apart may be missing. Identical values can stand only once.

Assays:
dengue virus type 2 [1] = experiment: Functional immunofluorescence assay to measure dose dependent changes in antiviral-drug inhibitory efficacy against Dengue virus type 2 Thailand/16681/84 in Vero E6/TMPRSS2 cells (cotreated with P-gp inhibitor, Elacridar). Cells are treated with antiviral candidates that are serially diluted, following infection, cells are fixed. EC50 is reported via analysis of immunofluorescence staining. The assay has been performed by Icahn School of Medicine at Mount Sinai.; type: organism-based, Chlorocebus sabaeus, VeroE6/TMPRSS2
Zika virus [2] = experiment: EC50 is reported via analysis of immunofluorescence staining. The assay has been performed by Icahn School of Medicine at Mount Sinai.; type: functional, organism-based, Chlorocebus sabaeus, VeroE6/TMPRSS2; details: for EC90: P-gp concentration 2 uM, P-gp inhibitor Elacidar
Zika virus [3] = experiment: Functional CPE-based assay to measure dose dependent changes in antiviral-drug inhibitory efficacy against Zika virus MR766 in Vero E6 miRFP670 cells (cotreated with P-gp inhibitor, CP100356). Cells are treated with antiviral candidates that are serially diluted. EC50 is reported via analysis of MTS assay as a readout of CPE. The assay has been performed by KU Leuven.; type: organism-based, Chlorocebus sabaeus, Vero C1008; details: Zika virus; for EC90: P-gp concentration 500 nM, P-gp inhibitor CP100356
dengue virus type 2 [4] = experiment: Functional assay to measure dose dependent changes in antiviral-drug inhibitory efficacy against Dengue virus type 2 New Guinea C in Vero E6 miRFP670 cells (cotreated with P-gp inhibitor, CP100356). Cells are treated with antiviral candidates that are serially diluted, following infection, cells are fixed. EC50 is reported via analysis of fluorescence intensity using high-content imager. The …; type: organism-based, Chlorocebus sabaeus, Vero C1008; details: Dengue virus; for EC90: P-gp concentration 500 nM, P-gp inhibitor CP100356

CNC(=O)[C@H](Nc1ccc2c(c1)CNC2)c1cc(Cl)cc(C2CC2)c1
EC50 (dengue virus type 2 [1]; Dengue virus, VeroE6/TMPRSS2): > 50 µM
EC90 (dengue virus type 2 [1]; Dengue virus, VeroE6/TMPRSS2, Maximum measured 162.297 %, Minimum measured 85.868 %, P-gp concentration 2 uM, P-gp inhibitor Elacidar): > 50 µM
EC90 (Zika virus [2]; Zika virus, VeroE6/TMPRSS2, Maximum measured 135.998 %, Minimum measured 64.507 %): > 16.7 µM
EC90 (Zika virus [2]; Zika virus, VeroE6/TMPRSS2, Baseline response 0 %, Hill slope -0.359, Maximum measured 94.864 %, Maximum response 100 %, Minimum measured 60.283 %, R squared 0.436): > 5.56 µM
EC50 (Zika virus [2]; veroe6/tmprss2): > 16.7 µM
EC50 (Zika virus [3]; Vero C1008): 3.04 µM
EC90 (Zika virus [3]; Vero C1008, Baseline response 0 %, EC90 CI (lower) 0.152 uM, EC90 CI (upper) 118.856 uM, Hill slope 6.595, Maximum measured 181.208 %, Maximum response 100 %, Minimum measured 1.929 %, R squared 0.623): 4.25 µM

O=C(Nc1cc(Cl)cc([C@H]2CN(Cc3ccccc3)C[C@@H]2c2cccc(-c3nn[nH]n3)c2)c1)OCc1ccccc1
EC50 (dengue virus type 2 [1]; Dengue virus, VeroE6/TMPRSS2): 3.42 µM
EC90 (dengue virus type 2 [1]; Dengue virus, VeroE6/TMPRSS2): 5.71 µM
EC50 (Zika virus [2]; Zika virus, VeroE6/TMPRSS2): 7.98 µM
EC90 (Zika virus [2]; Zika virus, VeroE6/TMPRSS2, Baseline response 15.017 %, Hill slope -78.318, Maximum measured 79.355 %, Maximum response 65.758 %, Minimum measured 8.182 %, R squared 0.629): 8.21 µM
EC50 (dengue virus type 2 [4]; Vero C1008): 7.89 µM
EC90 (dengue virus type 2 [4]; Vero C1008, Baseline response 0 %, EC90 CI (lower) 5.235 uM, EC90 CI (upper) 7.261 uM, Hill slope -8.911, Maximum measured 94.205 %, Maximum response 100 %, Minimum measured 1.534 %, R squared 0.94): 10.1 µM

O=C(Nc1ccc2c(c1)CNC2)c1cc(Br)cc2[nH]c(Cc3ccccc3)nc12
EC50 (dengue virus type 2 [1]; Dengue virus, VeroE6/TMPRSS2): > 16.7 µM
EC90 (dengue virus type 2 [1]; Dengue virus, VeroE6/TMPRSS2, Maximum measured 134.005 %, Minimum measured 55.42 %, P-gp concentration 2 uM, P-gp inhibitor Elacidar): > 16.7 µM
EC50 (Zika virus [2]; Zika virus, VeroE6/TMPRSS2): > 1.85 µM
EC90 (Zika virus [2]; Zika virus, VeroE6/TMPRSS2, Maximum measured 133.577 %, Minimum measured 80.808 %): > 1.85 µM
EC50 (dengue virus type 2 [4]; Vero C1008): 2.23 µM
EC90 (dengue virus type 2 [4]; Vero C1008, Baseline response 0 %, Hill slope -0.825, Maximum measured 88.647 %, Maximum response 100 %, Minimum measured 23.774 %, R squared 0.436): > 6.25 µM

O=C(NCc1ccc(F)cc1)[C@H](Nc1ccc2c(c1)CNC2)c1cc(Cl)cc2[nH]ncc12
EC50 (dengue virus type 2 [1]; Dengue virus, VeroE6/TMPRSS2): > 50 µM
EC90 (dengue virus type 2 [1]; Dengue virus, VeroE6/TMPRSS2, Maximum measured 150.332 %, Minimum measured 95.286 %, P-gp concentration 2 uM, P-gp inhibitor Elacidar): > 50 µM
EC90 (Zika virus [2]; Baseline response 0 %, EC90 CI (lower) 0.003 uM, EC90 CI (upper) 0.037 uM, Hill slope -0.964, Maximum measured 95.888 %, Maximum response 100 %, Minimum measured 15.187 %, R squared 0.753): 0.949 µM
EC90 (Zika virus [2]; Baseline response 0 %, Hill slope -0.072, Maximum measured 102.654 %, Maximum response 100 %, Minimum measured 56.434 %, R squared 0.024): > 16.7 µM
EC50 (dengue virus type 2 [4]; Vero C1008): > 50 µM
EC90 (dengue virus type 2 [4]; Vero C1008, Maximum measured 108.299 %, Minimum measured 100.399 %): > 50 µM
EC50 (Zika virus [3]; Vero C1008): > 50 µM
EC90 (Zika virus [3]; Vero C1008, Maximum measured 1.197 %, Minimum measured -8.607 %): > 50 µM

O=C1Cc2c(cc(Br)cc2C(=O)Nc2ccc3c(c2)CNC3)N1
EC50 (dengue virus type 2 [1]; Dengue virus, VeroE6/TMPRSS2): > 50 µM
EC90 (dengue virus type 2 [1]; Dengue virus, VeroE6/TMPRSS2, Maximum measured […], Minimum measured 159.027 %, P-gp concentration 2 uM, P-gp inhibitor Elacidar): > 50 µM
EC90 (Zika virus [2]; Baseline response 0 %, EC90 CI (lower) 0.005 uM, EC90 CI (upper) 0.605 uM, Hill slope -0.732, Maximum measured 85.329 %, Maximum response 60 %, Minimum measured 3.582 %, R squared 0.614): 21.3 µM
EC90 (Zika virus [2]; Baseline response 0 %, Hill slope -0.686, Maximum measured 100.363 %, Maximum response 100 %, Minimum measured 5.777 %, R squared 0.778): > 50 µM
EC50 (Zika virus [2]; Zika virus, VeroE6/TMPRSS2): 2.09 µM
EC50 (Zika virus [2]; veroe6/tmprss2): 1.06 µM
EC50 (dengue virus type 2 [4]; Vero C1008): > 50 µM
EC90 (dengue virus type 2 [4]; Vero C1008, Maximum measured 133.969 %, Minimum measured 97.1 %): > 50 µM
EC50 (Zika virus [3]; Vero C1008): 7.52 µM
EC90 (Zika virus [3]; Vero C1008, Baseline response 0 %, EC90 CI (lower) 4.323 uM, EC90 CI (upper) 45.141 uM, Hill slope 3.545, Maximum measured 169.819 %, Maximum response 100 %, Minimum measured -0.685 %, R squared 0.785): 14 µM

NCc1cccc(NC(=O)c2cc(Cl)cc(-n3cccc3)c2)c1
EC50 (dengue virus type 2 [1]; Dengue virus, VeroE6/TMPRSS2): 13.9 µM
EC90 (dengue virus type 2 [1]; Dengue virus, VeroE6/TMPRSS2, Baseline response 0 %, Hill slope -2.713, Maximum measured 77.83 %, Maximum response 65.791 %, Minimum measured 24.724 %, P-gp concentration 2 uM, R squared 0.597, P-gp inhibitor Elacidar): > 16.7 µM
EC50 (Zika virus [2]; Zika virus, VeroE6/TMPRSS2): > 5.56 µM
EC90 (Zika virus [2]; Zika virus, VeroE6/TMPRSS2, Maximum measured 124.363 %, Minimum measured 74.851 %): > 5.56 µM
EC50 (dengue virus type 2 [4]; Vero C1008): 14.4 µM
EC90 (dengue virus type 2 [4]; Vero C1008, Baseline response 0 %, EC90 CI (lower) 7.414 uM, EC90 CI (upper) 19.74 uM, Hill slope -12.44, Maximum measured 108.218 %, Maximum response 100 %, Minimum measured 0.325 %, R squared 0.952): 17.2 µM

NCc1cccc(NC(=O)c2cc(Cl)cc(CN)c2)c1
EC90 (dengue virus type 2 [1]; Baseline response 0 %, Hill slope -0.259, Maximum measured 118.193 %, Maximum response 100 %, Minimum measured 55.278 %, P-gp concentration 2 uM, R squared 0.275, P-gp inhibitor Elacidar): > 10 µM
EC90 (dengue virus type 2 [1]; Baseline response 0 %, Hill slope -0.379, Maximum measured 148.524 %, Maximum response 100 %, Minimum measured 29.621 %, P-gp concentration 2 uM, R squared 0.276, P-gp inhibitor Elacidar): > 50 µM
EC50 (dengue virus type 2 [1]; veroe6/tmprss2): > 10 µM and 48.2 µM
EC90 (Zika virus [2]; Zika virus, VeroE6/TMPRSS2, Maximum measured 123.027 %, Minimum measured 86.3 %): > 50 µM
EC90 (Zika virus [2]; Zika virus, VeroE6/TMPRSS2, Baseline response 0 %, Hill slope -0.468, Maximum measured 130.938 %, Maximum response 100 %, Minimum measured 51.052 %, R squared 0.396): > 3.33 µM
EC50 (Zika virus [2]; veroe6/tmprss2): > 50 µM

NCCCCc1ccc(NC(=O)c2cc(Cl)cc(NC(=O)OCc3ccccc3)c2)cc1
EC50 (dengue virus type 2 [1]; Dengue virus, VeroE6/TMPRSS2): > 5.56 µM
EC90 (dengue virus type 2 [1]; Dengue virus, VeroE6/TMPRSS2, Maximum measured 145.088 %, Minimum measured 103.355 %, P-gp concentration 2 uM, P-gp inhibitor Elacidar): > 5.56 µM
EC50 (Zika virus [2]; Zika virus, VeroE6/TMPRSS2): > 5.56 µM
EC90 (Zika virus [2]; Zika virus, VeroE6/TMPRSS2, Maximum measured 140.797 %, Minimum measured 81.401 %): > 5.56 µM
EC50 (dengue virus type 2 [4]; Vero C1008): 4.18 µM
EC90 (dengue virus type 2 [4]; Vero C1008, Baseline response 0 %, EC90 CI (lower) 1.854 uM, EC90 CI (upper) 4.634 uM, Hill slope -6.186, Maximum measured 92.478 %, Maximum response 100 %, Minimum measured 7.244 %, R squared 0.772): 5.96 µM

CC(C)OC(=O)Nc1cc(Cl)cc(C(=O)Nc2cccc(CN)c2)c1
EC50 (dengue virus type 2 [1]; Dengue virus, VeroE6/TMPRSS2): > 16.7 µM
EC90 (dengue virus type 2 [1]; Dengue virus, VeroE6/TMPRSS2, Baseline response 0 %, Hill slope -10.347, Maximum measured 131.012 %, Maximum response 100 %, Minimum measured 66.05 %, P-gp concentration 2 uM, R squared 0.241, P-gp inhibitor Elacidar): > 16.7 µM
EC50 (Zika virus [2]; Zika virus, VeroE6/TMPRSS2): > 16.7 µM
EC90 (Zika virus [2]; Zika virus, VeroE6/TMPRSS2, Maximum measured 132.205 %, Minimum measured 71.008 %): > 16.7 µM
EC50 (dengue virus type 2 [4]; Vero C1008): > 6.25 µM
EC90 (dengue virus type 2 [4]; Vero C1008, Maximum measured 143.842 %, Minimum measured 98.266 %): > 6.25 µM

NS(=O)(=O)c1ccc(C2CCN(Cc3c[nH]c4ccccc34)CC2)cc1
EC50 (dengue virus type 2 [1]; Dengue virus, VeroE6/TMPRSS2): > 50 µM
EC90 (dengue virus type 2 [1]; Dengue virus, VeroE6/TMPRSS2, Baseline response 0 %, Hill slope -0.438, Maximum measured 120.121 %, Maximum response 100 %, Minimum measured 70.269 %, P-gp concentration 2 uM, R squared 0.213, P-gp inhibitor Elacidar): > 50 µM
EC90 (Zika virus [2]; Zika virus, VeroE6/TMPRSS2, Maximum measured 220.71 %, Minimum measured 69.091 %): > 10 µM
EC90 (Zika virus [2]; Zika virus, VeroE6/TMPRSS2, Baseline response 0 %, Hill slope -0.394, Maximum measured 150.63 %, Maximum response 100 %, Minimum measured 65.565 %, R squared 0.026): > 50 µM
EC50 (Zika virus [2]; veroe6/tmprss2): > 50 µM

O=C(O)c1cc(Cl)ccc1S(=O)(=O)NC1CCN(c2nc(C3CC3)cc(C(F)(F)F)n2)CC1
EC90 (dengue virus type 2 [1]; Dengue virus, VeroE6/TMPRSS2, Maximum measured 136.17 %, Minimum measured 94.607 %, P-gp concentration 2 uM, P-gp inhibitor Elacidar): > 16.7 µM
EC90 (dengue virus type 2 [1]; Dengue virus, VeroE6/TMPRSS2, Baseline response 0 %, Hill slope -0.112, Maximum measured 104.285 %, Maximum response 100 %, Minimum measured 47.241 %, P-gp concentration 2 uM, R squared 0.035, P-gp inhibitor Elacidar): > 3.33 µM
EC50 (dengue virus type 2 [1]; veroe6/tmprss2): > 16.7 µM
EC90 (Zika virus [2]; Zika virus, VeroE6/TMPRSS2, Maximum measured 121.005 %, Minimum measured 84.589 %): > 16.7 µM
EC90 (Zika virus [2]; Zika virus, VeroE6/TMPRSS2, Baseline response 0 %, Hill slope -0.273, Maximum measured 117.096 %, Maximum response 100 %, Minimum measured 55.547 %, R squared 0.133): > 3.33 µM
EC50 (Zika virus [2]; veroe6/tmprss2): > 16.7 µM
